Patent US20250163119A1, “COMPOUNDS FOR THE TREATMENT OF DIABETES OR OBESITY” (Eli Lilly and Company, priority 2023, published 2025)
Several values for one entry are separate records, joined by “and”; a condition that tells them apart may be missing. Identical values can stand only once. Like-named read-outs stand apart in the source and are kept apart here. *1 amine or outer side, *2 acyl side, *3 side chain or, on linkers, in order; H or OH if unused. Where a SMILES comes first, the peptide text is derived from it. Side-chain parts run from the residue outwards. [ ]: non-standard residue; d: D form. The star is where a group is joined. C20 diacid = O=C(O)CCCCCCCCCCCCCCCCCCC(=O)*; γGlu = O=C(O)[C@H](CCC(=O)[*:2])N[*:1]; εLys = N[C@@H](CCCCN[*:1])C(=O)[*:2]; αMeL = CC(C)C[C@](C)(N)C(=O)O; AEEA = NCCOCCOCC(=O)O; Aib = CC(C)(N)C(=O)O

What was measured:
[1] = Pharmacokinetics in Yucatan mini-pigs, single subcutaneous or intravenous dose; type: in vivo
Method: Plasma concentrations of compounds were determined by LC/MS methods. For each assay, the compound and an internal standard (IS), were extracted from 100% mouse, rat, pig, or monkey plasma (70 μL) using Isopropanol-Methanol. Two distinct layers were formed upon centrifugation with the compound and the IS located in the supernatant layer. An aliquot of the supernatant (150 μL) was transferred to a Waters Sirocco Protein Precipitation Plate. The supernatant was eluted using a positive pressure manifold. The supernatant was mixed with 100-2 Water-Formic acid (400 μL) in a pretreated Sep-Pak tC18 SPE plate and eluted to waste. The peptide and IS were eluted with Acetonitrile-Formic acid (100 μL) in 2 steps (50 μL each step). The elution (40 μL) from SPE plate was mixed with diluent solution (1.875 μL 5× invitrosol and 3.125 μL 1% formic acid in water, 80 μL). A final sample (10 μl) was loaded onto a Xselect CSH C18 IS column (3.5 μm 2.1×20 mm). The column effluent was directed into a Thermo Fisher Scientific Orbitrap (Exploris 240) mass spectrometer for detection and quantitation.
Male Yucatan mini-pigs were administered a single subcutaneous dose or intravenous dose (19 or 99 nmol/kg) of compound in 40 mM Tris-HCl 5% D-mannitol (pH 8) at a volume of 0.01 or 0.05 mL/kg. Blood was collected from each animal at 0.083 (IV only), 0.5, 3, 6, 24, 48, 72, 96, 168, 240, 336, 408, and 504 hours postdose for pharmacokinetic characterization.

human CRHR2 = target: T1, human CRHR2 (Homo sapiens, UniProt Q13324); experiment: Human CRHR2 cAMP assay (HTRF) in HEK293 cells stably expressing human CRHR2; type: cell-based; conditions: HEK293 cells overexpressing human CRHR2; relative EC50, maximum 10 nM human UCN2; mean ± SE; read-out: hCRHR2 cAMP EC50 (pM, ± SE)
T1 construct: expressed in transfected cells
T1 sequence (Q13324 1-438 isoform Q13324-2): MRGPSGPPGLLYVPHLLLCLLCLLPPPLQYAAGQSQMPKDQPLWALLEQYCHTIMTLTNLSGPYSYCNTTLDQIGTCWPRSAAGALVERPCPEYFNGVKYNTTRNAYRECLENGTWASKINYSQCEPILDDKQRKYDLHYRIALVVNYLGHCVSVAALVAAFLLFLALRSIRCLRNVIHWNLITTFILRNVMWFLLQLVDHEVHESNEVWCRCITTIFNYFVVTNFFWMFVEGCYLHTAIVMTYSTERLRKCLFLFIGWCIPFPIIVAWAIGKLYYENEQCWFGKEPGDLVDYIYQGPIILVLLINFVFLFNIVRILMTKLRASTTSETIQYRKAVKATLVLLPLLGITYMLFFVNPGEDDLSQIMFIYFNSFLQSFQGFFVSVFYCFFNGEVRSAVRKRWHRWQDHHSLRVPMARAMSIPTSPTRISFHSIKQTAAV
Method in brief: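 Stably expressing HEK293 clones received peptide concentration series in phosphodiesterase-inhibited buffer (0.25 mM IBMX, pH 7.4). After receptor-specific incubation (CRHR1 1 h at 37° C; CRHR2 30 min at room temperature), cells were lysed with HTRF cAMP reagents for 60 min and the 665/620 nm ratio recorded.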

[2] = male Yucatan pigs, single subcutaneous dose 99 nmol/kg, individual animal
[3] = male, Yucatan mini-pig, minipig, plasma, iv, 99 nmol/kg, single intravenous dose 99 nmol/kg, mean
[4] = single intravenous dose 99 nmol/kg, male Yucatan pigs, individual animal
[5] = Yucatan mini-pig, minipig, plasma, sc, male Yucatan pigs, single subcutaneous dose 19 nmol/kg, Mean, read-out: AUC0-inf
[6] = Yucatan mini-pig, minipig, plasma, sc, male Yucatan pigs, single subcutaneous dose 19 nmol/kg, Mean, read-out: Cmax
[7] = male Yucatan pigs, single subcutaneous dose 19 nmol/kg, individual animal
[8] = male, Yucatan mini-pig, minipig, plasma, iv, 19 nmol/kg, single intravenous dose 19 nmol/kg, individual animal
[9] = male, Yucatan mini-pig, minipig, plasma, iv, 19 nmol/kg, single intravenous dose 19 nmol/kg, mean
[10] = male, Yucatan mini-pig, minipig, plasma, sc, 19 nmol/kg, single subcutaneous dose 19 nmol/kg, Mean
[11] = male, Yucatan mini-pig, minipig, plasma, sc, 19 nmol/kg, single subcutaneous dose 19 nmol/kg, Mean, read-out: CL/F (converted)
[12] = male, Yucatan mini-pig, minipig, plasma, sc, 19 nmol/kg, single subcutaneous dose 19 nmol/kg, Mean, read-out: Tmax
[13] = male, Yucatan mini-pig, minipig, plasma, sc, 19 nmol/kg, single subcutaneous dose 19 nmol/kg, individual animal
[14] = minipig, plasma, single intravenous dose 19 nmol/kg, male Yucatan pigs, mean, read-out: AUC0-inf
[15] = minipig, plasma, single intravenous dose 19 nmol/kg, male Yucatan pigs, mean, read-out: C0
[16] = single intravenous dose 19 nmol/kg, male Yucatan pigs, individual animal

Row | Compound | EC50 (human CRHR2) [pM] | AUC0-inf [1, 5] [µM·h] | Cmax [1, 6] [nM] | AUC0-inf [1, 7] | CL/F [1, 7] | Cmax [1, 7] | T1/2 [1, 7] [h] | clearance [1, 8] [mL/day/kg] | half-life [1, 8] [h] | clearance [1, 9] [mL/day/kg] | half-life [1, 9] [h] | half-life [1, 10] [h] | CL/F [1, 11] [mL/day/kg] | Tmax [1, 12] [h] | half-life [1, 13] [h] | AUC0-inf [1, 14] [µM·h] | C0 [1, 15] [nM] | AUC0-inf [1, 16] | C0 [1, 16] | CL [1, 16] [mL/day/kg] | further results
1 | CC[C@H](C)[C@H](NC(C)=O)C(=O)N[C@H](C(=O)N[C@H](C(=O)N[C@@H](CO)C(=O)N[C@@](C)(CC(C)C)C(=O)N[C@@H](CC(=O)O)C(=O)N[C@@H](C(=O)N1CCC[C@H]1C(=O)N[C@H](C(=O)NCC(=O)N[C@@](C)(CC(C)C)C(=O)N[C@@H](CC(C)C)C(=O)N[C@@H](CCC(N)=O)C(=O)N[C@H](C(=O)N[C@@H](CCCCN)C(=O)N[C@@H](CC(C)C)C(=O)N[C@@H](CCC(=O)O)C(=O)N[C@@H](CCC(N)=O)C(=O)N[C@@H](CCC(=O)O)C(=O)N[C@@H](CCCNC(=N)N)C(=O)N[C@@H](C)C(=O)N[C@@H](CCC(=O)O)C(=O)N[C@@H](CCCCN)C(=O)N[C@@H](C)C(=O)N[C@@H](CCCNC(=N)N)C(=O)N[C@@H](CCC(N)=O)C(=O)N[C@@H](CCC(N)=O)C(=O)N[C@@H](C)C(=O)N[C@@H](CCCCNC(=O)COCCOCCNC(=O)COCCOCCNC(=O)CC[C@H](NC(=O)CCCCCCCCCCCCCCCCCCC(=O)O)C(=O)O)C(=O)N[C@@H](CCC(=O)O)C(=O)N[C@@H](CC(N)=O)C(=O)N[C@H](C(=O)N[C@@H](CCC(=O)O)C(=O)N[C@H](C(=O)N[C@@H](CC(C)C)C(=O)N[C@@H](C)C(=O)N[C@@H](CCC(N)=O)C(=O)N[C@H](C(N)=O)C(C)C)[C@@H](C)CC)[C@@H](C)O)[C@@H](C)CC)[C@@H](C)O)C(C)C)[C@@H](C)O)C(C)C [SEQ ID NO: 29, Ac-IVTS αMeL D (D-Val) PTG αMeL LQIKLEQERAEKARQ QAK((2-[2-(2-Amino-ethoxy)-ethoxy]-acetyl)2-γE-CO-(CH2)18-CO2H)ENTEILAQV-NH2] (Ac-IVTS[αMeL]D[dV]PTG[αMeL]LQIKLEQERAEKARQQAK([AEEA-AEEA-γGlu-C20 diacid])ENTEILAQV-NH2) | 5.6 ± 0.4 | – | – | – | – | – | – | – | – | – | – | – | – | – | – | – | – | – | – | – | AUC0-inf ([1]; Yucatan mini-pig, minipig, plasma, sc, male Yucatan pigs, single subcutaneous dose 99 nmol/kg, Mean, read-out: AUC0-inf): 76.4 µM·h; Cmax ([1]; Yucatan mini-pig, minipig, plasma, sc, male Yucatan pigs, single subcutaneous dose 99 nmol/kg, Mean, read-out: Cmax): 259 nM; AUC0-inf [1, 2]: 128 µM·h and 67.5 µM·h and 33.8 µM·h; CL/F [1, 2]: 24.7 mL/day/kg and 49.4 mL/day/kg and 85.4 mL/day/kg; Cmax [1, 2]: 497 nM and 201 nM and 79.6 nM; T1/2 [1, 2]: 292 h and 185 h; Tmax [1, 2]: 168 h; clearance ([1]; male, Yucatan mini-pig, minipig, plasma, iv, 99 nmol/kg, single intravenous dose 99 nmol/kg, individual animal): 7.7 mL/day/kg; clearance [1, 3]: 8.54 mL/day/kg; half-life [1, 3]: 166 h; half-life ([1]; male, Yucatan mini-pig, minipig, plasma, sc, 99 nmol/kg, single subcutaneous dose 99 nmol/kg, Mean): 214 h; CL/F ([1]; male, Yucatan mini-pig, minipig, plasma, sc, 99 nmol/kg, single subcutaneous dose 99 nmol/kg, Mean, read-out: CL/F (converted)): 53.3 mL/day/kg; Tmax ([1]; male, Yucatan mini-pig, minipig, plasma, sc, 99 nmol/kg, single subcutaneous dose 99 nmol/kg, Mean, read-out: Tmax): 72 h; half-life ([1]; male, Yucatan mini-pig, minipig, plasma, sc, 99 nmol/kg, single subcutaneous dose 99 nmol/kg, individual animal): 166 h; AUC0-inf ([1]; minipig, plasma, single intravenous dose 99 nmol/kg, male Yucatan pigs, mean, read-out: AUC0-inf): 285 µM·h; C0 ([1]; minipig, plasma, single intravenous dose 99 nmol/kg, male Yucatan pigs, mean, read-out: C0): 2490 nM; AUC0-inf [1, 4]: 307 µM·h and 220 µM·h and 329 µM·h; C0 [1, 4]: 2530 nM and 2560 nM and 2380 nM; CL [1, 4]: 10.8 mL/day/kg and 7.18 mL/day/kg; T1/2 [1, 4]: 109 h and 126 h and 263 h
2 | Ac-GSPSIVTS[αMeL]DVPT[Aib][αMeL]LQKILEQERAEKARQQAK([γGlu-AEEA-εLys-C20 diacid])EAAEILAQV-NH2 [SEQ ID NO: 1, Ac-GSPSIVTS αMeL DVPT Aib αMeL LQKILEQERAEKARQQAK(γE-(2-[2-(2-Amino-ethoxy)-ethoxy]-acetyl)-ϵK-CO-(CH2)18-CO2H)EAAEILAQV-NH2] | 9.3 ± 1.1 | 17.8 | 147 | 22.4 µM·h and 13.1 µM·h | 35 mL/day/kg | 171 nM and 122 nM | 60.2 | 14 | 87 | 18.1 | 71.5 | 75.9 | 27.6 | 6 | 91.6 | 26.2 | 619 | 32.1 µM·h and 20.2 µM·h | 591 nM and 646 nM | 22.2 | CL/F ([1]; male, Yucatan mini-pig, minipig, plasma, sc, 19 nmol/kg, single subcutaneous dose 19 nmol/kg, individual animal, read-out: CL/F (converted)): 20.4 mL/day/kg; Tmax ([1]; male, Yucatan mini-pig, minipig, plasma, sc, 19 nmol/kg, single subcutaneous dose 19 nmol/kg, individual animal, read-out: Tmax): 6 h; T1/2 [1, 16]: 55.9 h
3 | Ac-GSPSIVTS[αMeL]DVPT[Aib][αMeL]LQKLLEQERAEKARQQAK([γGlu-AEEA-εLys-C20 diacid])EAAEILAQV-NH2 [SEQ ID NO: 2, Ac-GSPSIVTS αMeL DVPT Aib αMeL LQKLLEQERAEKARQQAK(γE-(2-[2-(2-Amino-ethoxy)-ethoxy]-acetyl)-ϵK-CO-(CH2)18-CO2H)EAAEILAQV-NH2] | 12.3 ± 1.8 | 18.1 | 107 | 24.4 µM·h and 11.7 µM·h | 18.9 mL/day/kg and 39.1 mL/day/kg | 154 nM and 60.4 nM | 90.8 | 15.6 | 95.4 | 14.6 | 85.3 | 80.8 | 29 | 51 | 70.7 | 30.9 | 694 | 28.9 µM·h and 32.8 µM·h | 809 nM and 578 nM | 13.7 | Tmax [1, 7]: 6 h and 96 h; T1/2 [1, 16]: 75.1 h
